Values quoted from earlier work, collected in patent US20190069585A1, “Compositions of micronutrients and phytochemicals for optimal human health” (priority 2017, published 2019).

Conditions: consumed orally by humans

- plasma levels of glutathione: do not significantly increase
SMILES: N[C@@H](CCC(=O)N[C@@H](CS)C(=O)NCC(=O)O)C(=O)O [glutathione]
